The series relates to rodent carcinogenicity bioassays, tumor incidence. Description: CCRIS carcinogenicity studies. Conditions: Dose: 0, Dose: 0. The text has this:
The CCRIS database contains chemical records with carcinogenicity, mutagenicity, tumor promotion, and tumor inhibition test results. It was developed by the National Cancer Institute (NCI). Data are derived from studies cited in primary journals, current awareness tools, NCI reports, and other sources. Test results have been reviewed by experts in carcinogenesis and mutagenesis.
CCRIS provides historical information from the years 1985 - 2011. It is no longer updated.
This is an archive assay for CCRIS carcinogenicity studies.

For five molecules, carcinogen call results are on record in PubChem BioAssay AID1259411 (Chemical Carcinogenesis Research Information System (CCRIS), 2018).

Activity calls are given as the source filed them. No rule for the calls is given here.

For `O=CCC=O`, the carcinogen call was “inactive; negative” (Species: MOUSE, Strain/Sex: B6C3F1/FEMALE, Route: GAVAGE, 60, 120 MG/KG IN DISTILLED WATER 5D/WK FOR 102 WK (STUDY DURATION: 105 WK), 60, 120 MG/KG IN DISTILLED WATER 5D/WK FOR 102 WK (STUDY DURATION: 105 WK)); “inactive; negative” (Species: MOUSE, Strain/Sex: B6C3F1/FEMALE, Route: INTRAPERITONEAL, 1500 NMOL TOTAL DOSE, 1/3 AND 2/3 OF THE TOTAL DOSE ADMINISTERED AT 8 AND 15 DAYS OF AGE RESPECTIVELY, ANIMALS TERMIN); “inactive; negative” (Species: MOUSE, Strain/Sex: B6C3F1/FEMALE, Route: INTRAPERITONEAL, 3000 NMOL TOTAL DOSE, 1/3 AND 2/3 OF THE TOTAL DOSE ADMINISTERED AT 8 AND 15 DAYS OF AGE RESPECTIVELY, ANIMALS TERMIN); “inactive; negative” (Species: MOUSE, Strain/Sex: B6C3F1/MALE, Route: GAVAGE, 60, 120 MG/KG IN DISTILLED WATER 5D/WK FOR 102 WK (STUDY DURATION: 104 WK), 60, 120 MG/KG IN DISTILLED WATER 5D/WK FOR 102 WK (STUDY DURATION: 104 WK)); “inactive; negative” (Species: MOUSE, Strain/Sex: B6C3F1/MALE, Route: INTRAPERITONEAL, 1500 NMOL TOTAL DOSE, 1/3 AND 2/3 OF THE TOTAL DOSE ADMINISTERED AT 8 AND 15 DAYS OF AGE RESPECTIVELY, ANIMALS TERMIN); “inactive; negative” (Species: MOUSE, Strain/Sex: B6C3F1/MALE, Route: INTRAPERITONEAL, 3000 NMOL TOTAL DOSE, 1/3 AND 2/3 OF THE TOTAL DOSE ADMINISTERED AT 8 AND 15 DAYS OF AGE RESPECTIVELY, ANIMALS TERMIN). For the same molecule, the carcinogen call (Species: RAT, Strain/Sex: F344/FEMALE, Route: GAVAGE, 50, 100 MG/KG IN DISTILLED WATER 5D/WK FOR 102 WK (STUDY DURATION: 105 WK), 50, 100 MG/KG IN DISTILLED WATER 5D/WK FOR 102 WK (STUDY DURATION: 105 WK), Tumor Site: Type of Lesion: THYROID GLAND: FOLLICULAR CELL ADENOMA, THYROID GLAND: FOLLICULAR CELL ADENOMA OR CARCINOMA) was “active; positive” and the carcinogen call (Species: RAT, Strain/Sex: F344/MALE, Route: GAVAGE, 50, 100 MG/KG IN DISTILLED WATER 5D/WK FOR 102 WK (STUDY DURATION: 104 WK), 50, 100 MG/KG IN DISTILLED WATER 5D/WK FOR 102 WK (STUDY DURATION: 104 WK), Tumor Site: Type of Lesion: THYROID GLAND: FOLLICULAR CELL ADENOMA OR CARCINOMA, PANCREATIC ISLETS: ISLET CELL ADENOMA, PANCREATIC ISLETS: ISLET CEL, Tumor Site: Type of Lesion: THYROID GLAND: FOLLICULAR CELL ADENOMA OR CARCINOMA, PANCREATIC ISLETS: ISLET CELL ADENOMA, PANCREATIC ISLETS: ISLET CEL) was “active; positive”.
`CN(Cc1ccccc1)N=O`: the carcinogen call runs as follows: (Species: MOUSE, Strain/Sex: CD-1/MALE, FEMALE, Route: INTRAPERITONEAL, 4 MG/KG 2/WK FOR 12 WK, 8 MG/KG 2/WK FOR 6 WK, 16 MG/KG 2/WK FOR 3 WK FOR TOTAL DOSES OF 96 MG/KG (STUDY DURATION: 40, 4 MG/KG 2/WK FOR 12 WK, 8 MG/KG 2/WK FOR 6 WK, 16 MG/KG 2/WK FOR 3 WK FOR TOTAL DOSES OF 96 MG/KG (STUDY DURATION: 40, Tumor Site: Type of Lesion: FORESTOMACH: PAPILLOMA, CARCINOMA) “active; positive”; (Species: RAT, Strain/Sex: SPRAGUE-DAWLEY/MALE, Route: GAVAGE, 0.5, 2 MG/KG IN SALINE ONCE ADMINISTERED TO RATS MAINTAINED ON ZINC-DEFICIENT DIET (STUDY DURATION: 14 WK), 0.5, 2 MG/KG IN SALINE ONCE ADMINISTERED TO RATS MAINTAINED ON ZINC-DEFICIENT DIET (STUDY DURATION: 14 WK), Tumor Site: Type of Lesion: ESOPHAGUS: TUMOR) “active; positive”.
On to `C[C@@H]1O[C@@H](OC[C@H]2O[C@@H](Oc3cc4c(O)cc(O)cc4[o+]c3-c3ccc(O)c(O)c3)[C@H](O)[C@@H](O)[C@@H]2O)[C@H](O)[C@H](O)[C@H]1O`, for which the carcinogen call (Species: RAT, Strain/Sex: WISTAR/FEMALE, Route: ORAL, 1.7, 4.1 G/KG/D IN DIET FOR 2 YR (STUDY DURATION: 2 YR), 1.7, 4.1 G/KG/D IN DIET FOR 2 YR (STUDY DURATION: 2 YR)) was “inactive; negative” and the carcinogen call (Species: RAT, Strain/Sex: WISTAR/MALE, Route: ORAL, 1.5, 3.7 G/KG/D DIET FOR 2 YR (STUDY DURATION: 2 YR), 1.5, 3.7 G/KG/D DIET FOR 2 YR (STUDY DURATION: 2 YR)) was “inactive; negative”.
`[K+]`: the carcinogen call (Species: RAT, Strain/Sex: F344/FEMALE, Route: ORAL, 10, 100, 1000 PPM IN DRINKING WATER FOR 2 YR (STUDY DURATION: 2 YR), 10, 100, 1000 PPM IN DRINKING WATER FOR 2 YR (STUDY DURATION: 2 YR), Tumor Site: Type of Lesion: SALIVARY GLAND: SQUAMOUS CELL CARCINOMA) is “active; positive” and the carcinogen call (Species: RAT, Strain/Sex: F344/MALE, Route: ORAL, 10, 100, 1000 PPM IN DRINKING WATER FOR 2 YR (STUDY DURATION: 2 YR), 10, 100, 1000 PPM IN DRINKING WATER FOR 2 YR (STUDY DURATION: 2 YR), Tumor Site: Type of Lesion: SALIVARY GLAND: SQUAMOUS CELL CARCINOMA) was “active; positive”.
As to `Cc1ccc(Nc2ccc(O)c3c2C(=O)c2ccccc2C3=O)cc1`, the carcinogen call (Species: MOUSE, Strain/Sex: SWISS-WEBSTER/FEMALE, Route: DERMAL, 1% IN 0.1 ML 0.1% SODIUM LAURYL SULFATE 1/WK FOR 18 MO (STUDY DURATION: 18 MO)) was “inactive; negative” and the carcinogen call (Species: MOUSE, Strain/Sex: SWISS-WEBSTER/MALE, Route: DERMAL, 1% IN 0.1 ML 0.1% SODIUM LAURYL SULFATE 1/WK FOR 18 MO (STUDY DURATION: 18 MO)) is “inactive; negative”.
